Reference: ChEMBL document CHEMBL3880415, “Spiro (Piperidine-4,2''-Pyrrolidine)-1-(3,5-Trifluoromethyl Phenyl) Methylcarboxamides As NK1 Tachikynin Receptor Antagonists” (2011)

target: Substance-P receptor (Homo sapiens, UniProt P25103); assay: Antagonist at human NK1 receptor expressed in recombinant BacMam virus infected human U2OS cells assessed as inhibition of substance P-induced intracellular calcium release preincubated for 30 mins followed by substance P addition by Fluo-4 calcium dye-based FLIPR assay; assay type: functional, cell-based; details: not given
Sequence (P25103 whole entry): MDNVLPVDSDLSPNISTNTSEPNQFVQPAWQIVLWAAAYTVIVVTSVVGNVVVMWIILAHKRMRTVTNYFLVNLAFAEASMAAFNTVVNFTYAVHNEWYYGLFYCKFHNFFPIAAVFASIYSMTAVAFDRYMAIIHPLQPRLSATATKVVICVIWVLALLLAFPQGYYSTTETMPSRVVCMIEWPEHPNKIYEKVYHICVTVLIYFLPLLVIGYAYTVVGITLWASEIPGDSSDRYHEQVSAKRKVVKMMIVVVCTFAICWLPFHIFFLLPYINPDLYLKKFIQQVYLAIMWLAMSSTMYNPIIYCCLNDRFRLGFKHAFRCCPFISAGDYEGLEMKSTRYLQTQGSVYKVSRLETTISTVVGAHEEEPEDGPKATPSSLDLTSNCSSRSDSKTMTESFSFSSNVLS

How did the Ki turn out when `Cc1cc(F)ccc1[C@H]1C[C@]2(CC[C@@H](C(N)=O)N2)CCN1C(=O)N(C)[C@H](C)c1cc(C(F)(F)F)cc(C(F)(F)F)c1` was run?
The Ki was under 1 nM.

`Cc1cc(F)ccc1[C@H]1C[C@]2(CCCN2)CCN1C(=O)N(C)[C@H](C)c1cc(C(F)(F)F)cc(C(F)(F)F)c1` was tested. Which Ki did it give?
Its Ki is under 1 nM.

Which Ki does the source give for `Cc1cc(F)ccc1[C@H]1C[C@]2(CC[C@@H](C(N)=O)N2)CCN1C(=O)N(C)Cc1cc(C(F)(F)F)cc(C(F)(F)F)c1` here?
Its Ki is under 1 nM.

How did the Ki turn out when `Cc1cc(F)ccc1[C@H]1C[C@@]2(CCN1C(=O)N(C)[C@H](C)c1cc(C(F)(F)F)cc(C(F)(F)F)c1)CC(C(=O)O)CN2` (stereo not given in full) was run?
The Ki was under 1 nM.

`Cc1cc(F)ccc1[C@H]1C[C@]2(CC[C@@H](C(N)=O)N2)CCN1C(=O)N(C)[C@@H](C)c1cc(C(F)(F)F)cc(C(F)(F)F)c1` was tested. Which Ki did it give?
The Ki was under 1 nM.

For `Cc1cc(F)ccc1[C@H]1C[C@]2(CC[C@H](C(N)=O)N2)CCN1C(=O)N(C)[C@@H](C)c1cc(C(F)(F)F)cc(C(F)(F)F)c1`, which Ki is on record?
Its Ki is under 1 nM.

How did the Ki turn out when `Cc1cc(F)ccc1[C@H]1C[C@@]2(CCN1C(=O)N(C)[C@H](C)c1cc(C(F)(F)F)cc(C(F)(F)F)c1)NCC[C@@H]2C(=O)O` was run?
The Ki was under 1 nM.

Which Ki does the source give for `Cc1cc(F)ccc1[C@H]1C[C@]2(CC[C@H](C(N)=O)N2)CCN1C(=O)N(C)Cc1cc(C(F)(F)F)cc(C(F)(F)F)c1` here?
Its Ki is under 1 nM.

`Cc1cc(F)ccc1[C@H]1C[C@]2(CC[C@H](C(N)=O)N2)CCN1C(=O)N(C)[C@H](C)c1cc(C(F)(F)F)cc(C(F)(F)F)c1` was tested. Which Ki did it give?
Its Ki is under 1 nM.

same assay, conditions: u2os

With `Cc1cc(F)ccc1[C@H]1C[C@@]2(CCC(C(N)=O)N2)CCN1C(=O)N(C)[C@H](C)c1cc(C(F)(F)F)cc(C(F)(F)F)c1` (stereo not given in full) as the molecule, how does the pKi read?
Its pKi is over 9.
